# Measurements taken from PubChem BioAssay (NCI).
#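 Compound exposure: 48 hours, 5 concentrations, 96-well plates. The concentration for 50% growth inhibition is given as GI50. TGI: concentration producing complete growth inhibition.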
# Key:
# Assay in all cases: inhibition of tumour cell growth, NCI panel, 48 h
# [1] = test system: CAKI-1 renal
# [2] = test system: HCT-116 colon
# [3] = test system: HOP-62 NSCLC
# [4] = test system: HT29 colon
# [5] = test system: K-562 leukemia
# [6] = test system: MALME-3M melanoma
# [7] = test system: MOLT-4 leukemia
# [8] = test system: OVCAR-4 ovarian
# [9] = test system: OVCAR-5 ovarian
# [10] = test system: RXF 393 renal
# [11] = test system: SNB-75 CNS
# [12] = test system: UACC-62 melanoma
SMILES,TGI [1],TGI [2],TGI [3],TGI [4],TGI [5],TGI [6],TGI [7],TGI [8],TGI [9],TGI [10],TGI [11],TGI [12],GI50 [1],GI50 [6],GI50 [8],GI50 [9],GI50 [10],GI50 [11],GI50 [12]
NC(=S)N/N=C/c1nccc2ccccc12,58.7 µM,> 100 µM,> 100 µM,> 100 µM,> 100 µM,0.476 µM,> 100 µM,> 100 µM,> 100 µM,0.902 µM,13.6 µM,14.7 µM,–,–,–,–,–,–,–
c1ccc(N2N=C(c3cccc(Nc4ccncc4)c3)CC2c2ccc3c(c2)OCO3)cc1 (stereo not given),2.69 µM,–,–,–,–,3.06 µM,–,3.89 µM,4.85 µM,3.06 µM,3.74 µM,3.24 µM,1.3 µM,1.57 µM,1.53 µM,2.06 µM,1.61 µM,1.47 µM,1.73 µM
CC[C@@H]1ON(C)[C@H]2CN(C)C(=O)[C@@H]12,> 100 µM,> 100 µM,> 100 µM,> 100 µM,> 100 µM,–,> 100 µM,> 100 µM,> 100 µM,–,–,–,–,–,–,–,–,–,–
COc1nc2ccc(COc3ccc(C(=O)NC(CCC(=O)O)C(=O)O)cc3)cc2nc1OC (stereo not given),> 10 µM,–,> 10 µM,> 10 µM,> 10 µM,–,> 10 µM,> 10 µM,> 10 µM,> 10 µM,> 10 µM,> 10 µM,–,–,–,–,–,–,–
Cc1nc2c(c(=O)[nH]1)S/C(=C(/C#N)c1nc3ccccc3[nH]1)N2c1ccccc1,> 100 µM,> 100 µM,> 100 µM,> 100 µM,> 100 µM,> 100 µM,> 100 µM,> 100 µM,> 100 µM,> 100 µM,> 100 µM,> 100 µM,–,–,–,–,–,–,–
CC(=O)N1N=C(c2ccc3ccccc3c2O)CC1c1cccs1 (stereo not given),> 100 µM,> 100 µM,> 100 µM,> 100 µM,22.5 µM,> 100 µM,33.5 µM,> 100 µM,> 100 µM,99.3 µM,> 100 µM,25.9 µM,–,–,–,–,–,–,–
COc1ccc2c(c1O)-c1cc(O)cc3c1[C@@H](C2)N(C)CC3,142 µM,49.9 µM,106 µM,223 µM,241 µM,126 µM,211 µM,125 µM,63.3 µM,119 µM,124 µM,136 µM,–,–,–,–,–,–,–
O=C1C(Cl)N(c2cccc(Cl)c2)C1c1c[nH]c2ccccc12 (stereo not given),–,> 100 µM,> 100 µM,> 100 µM,> 100 µM,> 100 µM,> 100 µM,> 100 µM,–,> 100 µM,> 100 µM,> 100 µM,–,–,–,–,–,–,–
COc1ccc(-c2csc(=Nc3ccccc3)n2CCCN(C)C)cc1,> 100 µM,–,28.3 µM,–,–,–,48.9 µM,65.6 µM,30.4 µM,26.6 µM,19.3 µM,34.7 µM,–,–,–,–,–,–,–
COc1cc(C2S/C(=C/c3ccccc3)C(=O)N2c2ccc(NC(C)=O)cc2)cc(OC)c1OC (stereo not given),72.4 µM,26.1 µM,> 100 µM,32 µM,> 100 µM,55.6 µM,75.6 µM,> 100 µM,96.2 µM,63 µM,37.5 µM,> 100 µM,–,–,–,–,–,–,–
